Data reported in patent publication US20230279025A1, “KRAS G12D INHIBITORS” (Mirati Therapeutics, Inc., priority 2020, published 2023).

How the values were obtained:
KRas G12D [1] = target: T1, KRas G12D (Homo sapiens (Human), UniProt P01116, G12D); experiment: KRas G12D Surface Plasmon Resonance (SPR) Binding Assay; conditions: Biacore T200, immobilized biotinylated KRAS protein, 1:1 binding model
Method: Briefly, 1L of 1.05X HBS-Mg buffer (262.5 mM Bioultra Hepes, pH 7.5, 157.5 mM NaCl, 105 mM MgCl2, 0.525 mM TCEP, 0.0305% Brij-35) was prepared and filter sterilized using a 0.22 μm bottle top filter. Approximately 50 mL of 1.05X HBS-Mg buffer was removed and saved for future dilutions. A 50 mL aliquot of DMSO (Sigma Aldrich DMSO Lot. #SHBK2079) was added and continued to stir for 10 minutes, creating the final 1.0X HBS-Mg buffer (250 mM Bioultra Hepes pH 7.5, 150 mM NaCl, 100 mM MgCl2, 0.5 mM TCEP, 0.03% Brij-35).
Biacore T200 instrument was primed using 1.0X HBS-Mg buffer before docking a GE Streptavidin (SA) chip and then primed two additional times prior to beginning the immobilization step. All immobilized protein mixtures were created using 3-5 mg/mL Biotinylated Avidin-tagged KRAS protein using the following immobilization settings: SA chip type, 1 flow cells per cycle, 720 second contact time, and 5 ul/min flow rate. Normalization of the detector was also performed during the immobilization step using the GE BiaNormalize solution.
All compounds were diluted to 10 mM in 100% DMSO prior to being diluted 20X in 1.05X buffer. Another 10X dilution was created using 1.0X buffer prior to performing a series of 3X dilutions to create a compound concentration curve using the following assay settings: 20C analysis temperature, General Settings=10 Hz data collection rate and multi-detection; Assay Steps=all set to LMW kinetics; Cycle Types=LMW kinetics (60 s contact time, 120 s dissociation time, 100 ul/min flow rate, extra wash after injection with 50% DMSO, flow path 1,2,3,4); Flow path detection=2-1, 4-3). Data evaluation was performed using the Biacore T200 Evaluation software and data fit to 1:1 binding model. ND=not determined.
Target sequence in this assay (P01116-2 other isoform, or with tags, fused parts or gaps G12D): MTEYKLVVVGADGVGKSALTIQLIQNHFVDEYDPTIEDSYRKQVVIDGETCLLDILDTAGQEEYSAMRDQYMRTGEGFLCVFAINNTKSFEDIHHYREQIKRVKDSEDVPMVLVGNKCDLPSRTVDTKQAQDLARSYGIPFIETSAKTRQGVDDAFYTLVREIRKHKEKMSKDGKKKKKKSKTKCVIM

KRas G12D [2] = target: T1, KRas G12D; experiment: KRas G12D Binding Assay (TR-FRET displacement of Cy5 labelled tracer); conditions: GDP-loaded KRAS G12D (amino acids 1:169), 60 minute incubation at 22° C.
Method: After a 60 minute incubation at 22° C., the reaction was measured using a PerkinElmer EnVision multimode plate reader via TR-FRET dual wavelength detection, and the percent of control (POC) calculated using a ratiometric emission factor. […] The POC values were fit to a 4-parameter logistic curve and the IC50 value was determined as the concentration where the curve crosses 50 POC.
ND stands for “not determined.”
Target sequence in this assay (P01116 other isoform, or with tags, fused parts or gaps G12D): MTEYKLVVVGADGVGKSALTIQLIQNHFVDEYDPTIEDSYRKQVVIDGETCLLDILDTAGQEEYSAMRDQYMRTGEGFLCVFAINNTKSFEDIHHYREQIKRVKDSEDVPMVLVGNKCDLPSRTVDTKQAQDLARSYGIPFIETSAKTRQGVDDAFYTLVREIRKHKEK

Structure (SMILES)	Kd (KRas G12D [1]) [nM]	IC50 (KRas G12D [2]) [nM]
OCC(COc1nc(N2C[C@H]3CC[C@@H](C2)N3)c2cnc(-c3cccc4cccc(Cl)c34)c(F)c2n1)c1cccnc1 (stereo partly drawn) [Example 59, 3-((4-((1R,5S)-3,8-diazabicyclo[3.2.1]octan-3-yl)-7-(8-chloronaphthalen-1-yl)-8-fluoropyrido[4,3-d]pyrimidin-2-yl)oxy)-2-(pyridin-3-yl)propan-1-ol]	1120	946
Oc1cc(-c2ncc3c(N4C[C@H]5CC[C@@H](C4)N5)nc(OC[C@@H]4CC5CCN4C5)nc3c2F)c2ccccc2c1 [Example 40, 4-(2-(((2S)-1-azabicyclo[2.2.1]heptan-2-yl)methoxy)-4-((1R,5S)-3,8-diazabicyclo[3.2.1]octan-3-yl)-8-fluoropyrido[4,3-d]pyrimidin-7-yl)naphthalen-2-ol]	1.7	4
Oc1cc(-c2ncc3c(N4C[C@H]5CC[C@@H](C4)N5)nc(OCCc4cccnc4)nc3c2F)c2ccccc2c1 [Example 106, 4-(4-((1R,5S)-3,8-diazabicyclo[3.2.1]octan-3-yl)-8-fluoro-2-(2-(pyridin-3-yl)ethoxy)pyrido[4,3-d]pyrimidin-7-yl)naphthalen-2-ol]	53.5	156
OCC[C@@H](CO)Oc1nc(N2C[C@H]3CC[C@@H](C2)N3)c2cnc(-c3cccc4cccc(Cl)c34)c(F)c2n1 [Example 58, (S)-2-((4-((1R,5S)-3,8-diazabicyclo[3.2.1]octan-3-yl)-7-(8-chloronaphthalen-1-yl)-8-fluoropyrido[4,3-d]pyrimidin-2-yl)oxy)butane-1,4-diol]	4730	2330
CN1CCC[C@H]1COc1nc(N2C[C@H]3CC[C@@H](C2)N3)c2cnc(-c3cccc4c3C(C)(C)CC4)c(F)c2n1 [Example 161, 4-((1R,5S)-3,8-diazabicyclo[3.2.1]octan-3-yl)-7-(3,3-dimethyl-2,3-dihydro-1H-inden-4-yl)-8-fluoro-2-(((S)-1-methylpyrrolidin-2-yl)methoxy)pyrido[4,3-d]pyrimidine bis(2,2,2-trifluoroacetate)]	403	273
Oc1cc(-c2ncc3c(N4C[C@H]5CC[C@@H](C4)N5)nc(OCc4ccccc4F)nc3c2F)c2ccccc2c1 [Example 217, 4-(4-((1R,5S)-3,8-diazabicyclo[3.2.1]octan-3-yl)-8-fluoro-2-((2-fluorobenzyl)oxy)pyrido[4,3-d]pyrimidin-7-yl)naphthalen-2-ol]	2980	–
CN1CCC[C@H]1COc1nc(N2CC3CCC(CO)(C2)N3)c2cnc(-c3cc(O)cc4ccccc34)c(F)c2n1 (stereo partly drawn) [Example 215, 4-(8-fluoro-4-(1-(hydroxymethyl)-3,8-diazabicyclo[3.2.1]octan-3-yl)-2-(((S)-1-methylpyrrolidin-2-yl)methoxy)pyrido[4,3-d]pyrimidin-7-yl)naphthalen-2-ol bis(2,2,2-trifluoroacetate)]	70.4	–
CC(Oc1nc(N2C[C@H]3CC[C@@H](C2)N3)c2cnc(-c3cc(O)cc4ccccc34)c(F)c2n1)C1CCCN1C (stereo partly drawn) [Example 27, 4-(4-((1R,5S)-3,8-diazabicyclo[3.2.1]octan-3-yl)-8-fluoro-2-(1-(1-methylpyrrolidin-2-yl)ethoxy)pyrido[4,3-d]pyrimidin-7-yl)naphthalen-2-ol]	25.9	–
CN1CCC[C@H]1COc1nc(N2C[C@H]3CC[C@@H](C2)N3)c2cnc(-c3cccc4c3CCC4)c(F)c2n1 [Example 23, 4-((1R,5S)-3,8-diazabicyclo[3.2.1]octan-3-yl)-7-(2,3-dihydro-1H-inden-4-yl)-8-fluoro-2-(((S)-1-methylpyrrolidin-2-yl)methoxy)pyrido[4,3-d]pyrimidine]	807	–
COc1cccnc1CCOc1nc(N2C[C@H]3CC[C@@H](C2)N3)c2cnc(-c3cc(O)cc4ccccc34)c(F)c2n1 [Example 140, 4-(4-((1R,5S)-3,8-diazabicyclo[3.2.1]octan-3-yl)-8-fluoro-2-(2-(3-methoxypyridin-2-yl)ethoxy)pyrido[4,3-d]pyrimidin-7-yl)naphthalen-2-ol]	5590	–
CN(C)C(=O)CCOc1nc(N2C[C@H]3CC[C@@H](C2)N3)c2cnc(-c3cc(O)cc4ccccc34)c(F)c2n1 [Example 13, 3-((4-((1R,5S)-3,8-diazabicyclo[3.2.1]octan-3-yl)-8-fluoro-7-(3-hydroxynaphthalen-1-yl)pyrido[4,3-d]pyrimidin-2-yl)oxy)-N,N-dimethylpropanamide]	511	–
Oc1cc(-c2ncc3c(N4C[C@H]5CC[C@@H](C4)N5)nc(OC[C@@H]4CCCN4Cc4ccccc4)nc3c2F)c2ccccc2c1 [Example 12, 4-(2-(((S)-1-benzylpyrrolidin-2-yl)methoxy)-4-((1R,5S)-3,8-diazabicyclo[3.2.1]octan-3-yl)-8-fluoropyrido[4,3-d]pyrimidin-7-yl)naphthalen-2-ol]	11	–
CCN1CCC[C@H]1COc1nc(N2C[C@H]3CC[C@@H](C2)N3)c2cnc(-c3cc(O)cc4ccccc34)c(F)c2n1 [Example 11, 4-(4-((1R,5S)-3,8-diazabicyclo[3.2.1]octan-3-yl)-2-(((S)-1-ethylpyrrolidin-2-yl)methoxy)-8-fluoropyrido[4,3-d]pyrimidin-7-yl)naphthalen-2-ol]	4.9	–
CN1C[C@H](C(F)(F)F)C[C@H]1COc1nc(N2C[C@H]3CC[C@@H](C2)N3)c2cnc(-c3cc(O)cc4ccccc34)c(F)c2n1 [Example 28, 4-(4-((1R,5S)-3,8-diazabicyclo[3.2.1]octan-3-yl)-8-fluoro-2-(((2S,4R)-1-methyl-4-(trifluoromethyl)pyrrolidin-2-yl)methoxy)pyrido[4,3-d]pyrimidin-7-yl)naphthalen-2-ol]	58.7	–
CN1CCC[C@H]1COc1nc(N2CC3CCC(C=O)(C2)N3)c2cnc(-c3cc(O)cc4ccccc34)c(F)c2n1 (stereo partly drawn) [Example 214, 3-(8-fluoro-7-(3-hydroxynaphthalen-1-yl)-2-(((S)-1-methylpyrrolidin-2-yl)methoxy)pyrido[4,3-d]pyrimidin-4-yl)-3,8-diazabicyclo[3.2.1]octane-1-carbaldehyde]	284	–
CN1CCC[C@H]1CCOc1nc(N2C[C@H]3CC[C@@H](C2)N3)c2cnc(-c3cc(O)cc4ccccc34)c(F)c2n1 [Example 10, 4-(4-((1R,5S)-3,8-diazabicyclo[3.2.1]octan-3-yl)-8-fluoro-2-(2-((S)-1-methylpyrrolidin-2-yl)ethoxy)pyrido[4,3-d]pyrimidin-7-yl)naphthalen-2-ol]	33.8	–
Fc1c(-c2ccccc2[C@@H]2C[C@H]2F)ncc2c(N3C[C@H]4CC[C@@H](C3)N4)nc(OCC34CCCN3CCC4)nc12 (relative stereo) [Example 285, 4-((1R,5S)-3,8-diazabicyclo[3.2.1]octan-3-yl)-8-fluoro-7-(2-(trans-2-fluorocyclopropyl)phenyl)-2-((hexahydro-1H-pyrrolizin-7a-yl)methoxy)pyrido[4,3-d]pyrimidine]	–	279
Fc1c(-c2cccc3cccc(Cl)c23)ncc2c(N3C[C@H]4CC[C@@H](C3)N4)nc(OCC34CC(F)CN3CC(F)C4)nc12 (stereo partly drawn) [Example 425, 4-((1R,5S)-3,8-diazabicyclo[3.2.1]octan-3-yl)-7-(8-chloronaphthalen-1-yl)-2-((2,6-difluorohexahydro-1H-pyrrolizin-7a-yl)methoxy)-8-fluoropyrido[4,3-d]pyrimidine]	–	90.2
